# Data: patent US9708314B2, “Heterocyclic amide compound” (NISSAN CHEMICAL INDUSTRIES, LTD., priority 2013, dated 2017)
# Key:
# Assay type in all cases: in vivo
# [1] = system: Echinochloa oryzacola Vasing.; test: Test Example 1: herbicidal activity, application before weed generation in submerged conditions; settings: Application herbicide amount 320 g/ha; Seventeenth Table
# How it was run: (§1)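 Pre-emergence water-surface application under 4 cm flooding, same day as sowing, with rice transplanted at 2.5 leaf stage. Dose given as g/ha. Plants grown at 25° C. to 30° C. and rated three weeks later on a 0 (≤5%) to 5 (≥90%) herbicidal-ratio scale.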
# Monochoria vaginalis = test: as above; settings: Application herbicide amount 320 g/ha; Seventeenth Table
# How it was run: as §1
# Scirpus juncoides = test: as above; settings: Application herbicide amount 320 g/ha; Seventeenth Table
# How it was run: as §1
# [2] = system: transplanted Oryza sativa; test: Test Example 1: effect on crop, application before weed generation in submerged conditions; settings: Application herbicide amount 320 g/ha; Seventeenth Table
# How it was run: as §1
# [3] = system: Beta vulgaris ssp. vulgaris; test: Test Example 4: effect on crop by application to foliage (diluvial soil, plastic box); settings: application to foliage, 320 g/ha
# How it was run: (§2)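 Seeds sown in sterilized diluvial soil, covered ~1.5 cm, grown 14 days in greenhouse at 25° C. to 30° C. Emulsion formulation diluted in water to set rate (g/ha) and sprayed onto stems and leaves. Effect scored visually 3 weeks later on 0–5 scale (5 = ≥90% herbicidal ratio, 0 = ≤5%).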
# Brassica campestris L. = test: as above; settings: application to foliage, 320 g/ha
# How it was run: as §2
# Glycine max = test: as above; settings: application to foliage, 320 g/ha
# How it was run: as §2
# Triticum aestivum = test: as above; settings: application to foliage, 320 g/ha
# How it was run: as §2
# Zea mays = test: as above; settings: application to foliage, 320 g/ha
# How it was run: as §2
# [4] = system: directly sowed Oryza sativa; test: as above; settings: application to foliage, 320 g/ha
# How it was run: as §2
SMILES,A: Echinochloa oryzicola Vasing. (herbicidal effect grade) [1],C: Monochoria vaginalis (herbicidal effect grade) (Monochoria vaginalis),B: Scirpus juncoides (herbicidal effect grade) (Scirpus juncoides),a: transplanted Oryza sativa (effect on crop grade) [2],"effect on crop, f (Beta vulgaris ssp. vulgaris) [3]","effect on crop, g (Brassica campestris L.) (Brassica campestris L.)","effect on crop, c (Glycine max) (Glycine max)","effect on crop, e (Triticum aestivum) (Triticum aestivum)","effect on crop, b (Zea mays) (Zea mays)","effect on crop, d (directly sowed Oryza sativa) [4]"
Cn1nnnc1NC(=O)c1ccc(C(F)(F)F)n2c(N3CCOCC3)nnc12 [2-075],5 (Herbicidal ratio of 90% or more (almost completely withered)),5 (Herbicidal ratio of 90% or more (almost completely withered)),5 (Herbicidal ratio of 90% or more (almost completely withered)),5 (Herbicidal ratio of 90% or more (almost completely withered)),5 (Herbicidal ratio of 90% or more (almost completely withered)),5 (Herbicidal ratio of 90% or more (almost completely withered)),3 (Herbicidal ratio of 40% or more and less than 70%),4 (Herbicidal ratio of 70% or more and less than 90%),5 (Herbicidal ratio of 90% or more (almost completely withered)),5 (Herbicidal ratio of 90% or more (almost completely withered))
Cn1nnnc1NC(=O)c1ccc(C(F)(F)F)n2c(SCc3ccccc3)nnc12 [2-076],5 (Herbicidal ratio of 90% or more (almost completely withered)),3 (Herbicidal ratio of 40% or more and less than 70%),4 (Herbicidal ratio of 70% or more and less than 90%),2 (Herbicidal ratio of 20% or more and less than 40%),5 (Herbicidal ratio of 90% or more (almost completely withered)),4 (Herbicidal ratio of 70% or more and less than 90%),0 (Herbicidal ratio of 5% or less (almost no effect)),0 (Herbicidal ratio of 5% or less (almost no effect)),1 (Herbicidal ratio of 5% or more and less than 20%),1 (Herbicidal ratio of 5% or more and less than 20%)
COc1ccc(CSc2nnc3c(C(=O)Nc4nnnn4C)ccc(C(F)(F)F)n23)cc1 [2-077],5 (Herbicidal ratio of 90% or more (almost completely withered)),3 (Herbicidal ratio of 40% or more and less than 70%),3 (Herbicidal ratio of 40% or more and less than 70%),1 (Herbicidal ratio of 5% or more and less than 20%),5 (Herbicidal ratio of 90% or more (almost completely withered)),2 (Herbicidal ratio of 20% or more and less than 40%),0 (Herbicidal ratio of 5% or less (almost no effect)),0 (Herbicidal ratio of 5% or less (almost no effect)),0 (Herbicidal ratio of 5% or less (almost no effect)),2 (Herbicidal ratio of 20% or more and less than 40%)
Cn1nnnc1NC(=O)c1ccc(C(F)(F)F)n2c(N3CCSCC3)nnc12 [2-078],5 (Herbicidal ratio of 90% or more (almost completely withered)),2 (Herbicidal ratio of 20% or more and less than 40%),4 (Herbicidal ratio of 70% or more and less than 90%),4 (Herbicidal ratio of 70% or more and less than 90%),5 (Herbicidal ratio of 90% or more (almost completely withered)),5 (Herbicidal ratio of 90% or more (almost completely withered)),1 (Herbicidal ratio of 5% or more and less than 20%),2 (Herbicidal ratio of 20% or more and less than 40%),4 (Herbicidal ratio of 70% or more and less than 90%),4 (Herbicidal ratio of 70% or more and less than 90%)
COCCN(C)c1nnc2c(C(=O)Nc3nnnn3C)ccc(C(F)(F)F)n12 [2-079],5 (Herbicidal ratio of 90% or more (almost completely withered)),5 (Herbicidal ratio of 90% or more (almost completely withered)),5 (Herbicidal ratio of 90% or more (almost completely withered)),4 (Herbicidal ratio of 70% or more and less than 90%),5 (Herbicidal ratio of 90% or more (almost completely withered)),5 (Herbicidal ratio of 90% or more (almost completely withered)),2 (Herbicidal ratio of 20% or more and less than 40%),2 (Herbicidal ratio of 20% or more and less than 40%),5 (Herbicidal ratio of 90% or more (almost completely withered)),4 (Herbicidal ratio of 70% or more and less than 90%)
CSCCNc1nnc2c(C(=O)Nc3nnnn3C)ccc(C(F)(F)F)n12 [2-080],3 (Herbicidal ratio of 40% or more and less than 70%),0 (Herbicidal ratio of 5% or less (almost no effect)),0 (Herbicidal ratio of 5% or less (almost no effect)),2 (Herbicidal ratio of 20% or more and less than 40%),5 (Herbicidal ratio of 90% or more (almost completely withered)),5 (Herbicidal ratio of 90% or more (almost completely withered)),0 (Herbicidal ratio of 5% or less (almost no effect)),0 (Herbicidal ratio of 5% or less (almost no effect)),3 (Herbicidal ratio of 40% or more and less than 70%),4 (Herbicidal ratio of 70% or more and less than 90%)
CCCn1nnnc1NC(=O)c1ccc(C(F)(F)F)n2c(C(C)C)nnc12 [2-090],5 (Herbicidal ratio of 90% or more (almost completely withered)),5 (Herbicidal ratio of 90% or more (almost completely withered)),5 (Herbicidal ratio of 90% or more (almost completely withered)),4 (Herbicidal ratio of 70% or more and less than 90%),5 (Herbicidal ratio of 90% or more (almost completely withered)),4 (Herbicidal ratio of 70% or more and less than 90%),1 (Herbicidal ratio of 5% or more and less than 20%),3 (Herbicidal ratio of 40% or more and less than 70%),3 (Herbicidal ratio of 40% or more and less than 70%),3 (Herbicidal ratio of 40% or more and less than 70%)
